Reference: patent US10383868B2, “Quinoline containing compounds and their use for treating endoplasmic reticulum stress-related diseases” (priority 2015, dated 2019)

Assays:
Ob/ob mice = test: Effect of a SERCA agonist on the level of blood glucose in ob/ob mice; type: in vivo; details: n=3; for Blood Glucose Day 0: Day 0 (baseline), fasting glucose, 50 mg/kg i.p. group; for Blood Glucose Day 4: Day 4, fasting glucose, 50 mg/kg i.p. once a day
Procedure: Ob/ob mice (10 weeks old, n=3) are intraperitoneally (i.p.) injected with 100 μL of a solution containing 0 (vehicle), 10 or 50 mg/kg of a test compound once a day for a total of 5 days. Fasting glucose is measured at baseline and 10 hrs after the administration of the test compound. Glucose levels are measured in blood samples drawn from the tail vein using the OneTouch Ultra 2 Meter (LifeScan, Inc.).

SERCA = test: Activation of SERCA, NADH-linked, enzyme-coupled ATPase assay with SR vesicles; type: biochemical; details: concentration required for 50% activation of the maximum Vmax, pH 7.0, 5 mM ATP
Procedure: Test compounds were characterized over a range of concentrations using an NADH-linked, enzyme-coupled ATPase assay. Each well contained […] of SR vesicles (optimized for skeletal or cardiac SR, respectively), 50 mM MOPS (pH 7.0), 100 mM KCl, 5 mM MgCl2, 1 mM EGTA, 0.2 mM NADH, 1 mM phosphoenol pyruvate, 5 IU pyruvate kinase, 5 IU lactate dehydrogenase, and […] A23187 (a calcium ionophore), and CaCl2 was added to set free [Ca^2+] to the specific values. The assay was started upon addition of ATP at a final concentration of 5 mM, and read in a SpectraMax Plus microplate spectrophotometer and the ATPase activities were fitted using the Hill function. EC50 values were determined as the concentrations of the test compounds that were required for 50% activation of the maximum Vmax.

Compound | Blood Glucose Day 0 (Ob/ob mice) [mg/dL] | Blood Glucose Day 4 (Ob/ob mice) [mg/dL] | EC50 (SERCA) [nM]
Cc1ccc2cccc(C(=O)Nc3ccc(OC(C)C)cc3)c2n1 [Compound A1, N-(4-Isopropoxyphenyl)-2-methylquinoline-8-carboxamide] | 319 | 348 | 600
Cc1ccc2cccc(C(=O)Nc3cc(Br)cs3)c2n1 [Compound B1] | 318 | 333 | 1200
Cc1ccc2cccc(C(=O)Nc3ccc(Br)s3)c2n1 [Compound B2] | 320 | 215 | 1000
